Measured values taken from patent publication US12616754B2, “Composition for delivery of a bioactive agent and method of manufacture and use thereof” (priority 2020, dated 2026).

Columns and labels:
Assay in all cases: Cell viability WST-8 assay
Assay type in all cases: cell-based
[1] = tested on: BEAS-2B bronchial epithelial cells; settings: 24 h
Procedure: (§1) A549, BEAS-2B, H1299 and LL2 cells were cultured in 96-well plates at a density of 1×10^4 cells/well in DMEM supplemented with 2.0 mM L-glutamine, 50 μg/mL gentamicin, and 10% (v/v) fetal bovine serum at 37° C. in 5% CO2. Cells were then treated with various concentrations of free DOX, DNA NGs, and DNA-DOX NGs. After 24 h incubation, cell proliferation was evaluated using a WST-8 reagent (Dojindo Molecular Laboratories, Japan). After transferring the supernatant to 96-well plates, the supernatant was measured on a VersaMax Microplate Reader (Molecular Devices, Sunnyvale, CA, USA) at the wavelength of 405 nm. Cell viability was determined using the following equation: cell viability (%)=[(Abs405 nm in the treated sample cells−Abs405 nm in blank)/(Abs405 nm in untreated control cells−Abs405 nm in blank)]×100, wherein Abs405 nm refers to absorbance at 405 nm.

[2] = tested on: A549 lung adenocarcinoma cells; settings: A549, 24 h
Procedure: as §1

[3] = tested on: LL2 Lewis lung carcinoma cells; settings: LL2, 24 h
Procedure: as §1

[4] = tested on: H1299 non-small cell lung carcinoma cells; settings: H1299, 24 h
Procedure: as §1

## COc1cccc2c1C(=O)c1c(O)c3c(c(O)c1C2=O)C[C@@](O)(C(=O)CO)C[C@@H]3O[C@H]1C[C@H](N)[C@H](O)[C@H](C)O1.Cl [Free DOX, doxorubicin hydrochloride]
[1]
  IC50: 5.11 µg/mL
[2]
  IC50: 2.92 µg/mL
[3]
  IC50: 2.33 µg/mL
[4]
  IC50: 18.9 µg/mL
